Target: T1, human plasma renin (Homo sapiens, UniProt P00797)
T1 construct: from tissue; host or cells: human plasma
T1 sequence (P00797 67-406): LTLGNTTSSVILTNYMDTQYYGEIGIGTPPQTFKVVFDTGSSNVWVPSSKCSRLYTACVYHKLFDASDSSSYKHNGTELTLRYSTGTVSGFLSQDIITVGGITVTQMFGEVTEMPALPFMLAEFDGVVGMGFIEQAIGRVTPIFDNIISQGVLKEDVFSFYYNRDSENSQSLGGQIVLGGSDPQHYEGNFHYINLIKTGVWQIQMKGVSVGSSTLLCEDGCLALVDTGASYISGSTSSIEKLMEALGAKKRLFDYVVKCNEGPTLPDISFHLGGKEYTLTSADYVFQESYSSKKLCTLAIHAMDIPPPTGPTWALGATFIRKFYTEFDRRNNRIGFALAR
Assay: Renin inhibiting activities (human plasma, angiotensin I by radio immunoassay)
Format: biochemical
Conditions: pH7.4, 37° C., one hour, read-out: IC50 (50 % inhibition concentrations), renin inhibiting activity
Procedure: To 156 μl of a 0.2M sodium phosphate buffer solution (pH7.4), 40 μl of a solution mixture of 34 mM 8-hydroxyquinoline and 100 mM disodium ethylenediamine tetraacetate, 4 μl of dimethyl sulfoxide or a dimethyl sulfoxide solution of test compound and 200 μl of human plasma were added and reacted at 37° C. for one hour. Then, pepstatin was added thereto to terminate the reaction, and the amount of the resulting angiotension I was measured by radio immunoassay whereby the inhibiting activity was determined.

| SMILES | IC50 [nM] |
| --- | --- |
| CCCC[C@H](NC(=O)[C@H](Cc1cccc2ccccc12)CS(=O)(=O)C1C(OC(C)=O)CCC1OC(C)=O)C(=O)N[C@@H](CC1CCCCC1)[C@@H](O)[C@@H](O)CN1CCOCC1 (stereo partly drawn) [Example 37, (2S,3R,4S)-4-{L-N-[(2S)-3-(2,5-diacetoxycyclopentyl)sulfonyl-2-(1-naphthylmethyl)propionyl]norleucyl}amino-5-cyclohexyl-1-morpholino-2,3-pentanediol] | 2.9 |
| CCCC[C@H](NC(=O)[C@H](Cc1cccc2ccccc12)CS(=O)(=O)C1CCCC1OC(C)=O)C(=O)N[C@@H](CC1CCCCC1)[C@@H](O)[C@@H](O)CN1CCOCC1 (stereo partly drawn) [Example 35, (2S,3R,4S)-4-{L-N-[(2S)-3-(2-acetoxycyclopentyl)sulfonyl-2-(1-naphthylmethyl)propionyl]norleucyl}amino-5-cyclohexyl-1-morpholino-2,3-pentanediol] | 3.1 |
| CCCC[C@H](NC(=O)[C@H](Cc1cccc2ccccc12)CS(=O)(=O)CC(O)COC(=O)C(C)(C)C)C(=O)N[C@@H](CC1CCCCC1)[C@@H](O)[C@@H](O)CN1CCOCC1 (mixture of isomers) [Example 2, (2S,3R,4S)-4-{L-N-[(2S)-3-[(2RS)-3-pivaloyloxy-2-hydroxypropyl]sulfonyl-2-(1-naphthylmethyl)propionyl]norleucyl}amino-5-cyclohexyl-1-morpholino-2,3-pentanediol] | 7.2 |
| CC(=O)OCCS(=O)(=O)C[C@@H](Cc1cccc2ccccc12)C(=O)N[C@@H](Cc1c[nH]cn1)C(=O)N[C@@H](CC1CCCCC1)[C@@H](O)[C@@H](O)CN1CCOCC1 [Example 30] | 1.9 |
| CCCC[C@H](NC(=O)[C@H](Cc1cccc2ccccc12)CS(=O)(=O)CC(COC(C)=O)OC)C(=O)N[C@@H](CC1CCCCC1)[C@@H](O)[C@@H](O)CN1CCOCC1 (mixture of isomers) [Example 29, (2S,3R,4S)-4-{L-N-[(2S)-3-[(2RS)-3-acetoxy-2-methoxypropyl]sulfonyl-2-(1-naphthylmethyl)propionyl]norleucyl}amino-5-cyclohexyl-1-morpholino-2,3-pentanediol] | 0.76 |
| CCCC[C@H](NC(=O)[C@@H](CSCC(COC(C)=O)OC(C)=O)Cc1ccccc1)C(=O)N[C@@H](CC1CCCCC1)[C@@H](O)[C@@H](O)CN1CCOCC1 (mixture of isomers) [Example 16, (2S,3R,4S)-4-{L-N-[(2S)-3-[(2RS)-2,3-diacetoxypropyl]thio-2-benzylpropionyl]norleucyl}amino-5-cyclohexyl-1-morpholino-2,3-pentanediol] | 6 |
| CCCC[C@H](NC(=O)[C@H](Cc1cccc2ccccc12)CS(=O)(=O)CC(COC(C)=O)OC)C(=O)N[C@@H](CC1CCCCC1)[C@@H](O)[C@@H](O)CN1CCOCC1 (single isomer, unassigned) [Example 39] | 1.3 |
| CCCC[C@H](NC(=O)[C@H](Cc1cccc2ccccc12)CS(=O)(=O)CC(COC(C)=O)=NO)C(=O)N[C@@H](CC1CCCCC1)[C@@H](O)[C@@H](O)CN1CCOCC1 [Example 42, (2S,3R,4S)-4-{L-N-[(2S)-3-(3-acetoxy-2-hydroxyiminopropyl)sulfonyl-2-(1-naphthylmethyl)propionyl]norleucyl}amino-5-cyclohexyl-1-morpholino-2,3-pentanediol] | 6.1 |
| CCCC[C@H](NC(=O)[C@H](Cc1cccc2ccccc12)CS(=O)(=O)CCOC(=O)C(C)(C)C)C(=O)N[C@@H](CC1CCCCC1)[C@@H](O)[C@@H](O)CN1CCOCC1 [Example 4] | 7.7 |
| CCCC[C@H](NC(=O)[C@H](Cc1cccc2ccccc12)CS(=O)(=O)CC(O)COC(=O)CC)C(=O)N[C@@H](CC1CCCCC1)[C@@H](O)[C@@H](O)CN1CCOCC1 (mixture of isomers) [Example 12, (2S,3R,4S)-4-{L-N-[(2S)-3-[(2RS)-3-propionyloxy-2-hydroxypropyl]sulfonyl-2-(1-naphthylmethyl)propionyl]norleucyl}amino-5-cyclohexyl-1-morpholino-2,3-pentanediol] | 4.3 |
| CCCC[C@H](NC(=O)[C@H](Cc1cccc2ccccc12)C[S+]([O-])CC(COC(C)=O)OC(C)=O)C(=O)N[C@@H](CC1CCCCC1)[C@@H](O)[C@@H](O)CN1CCOCC1 (mixture of isomers) [Example 6 (having a high Rf value), (2S,3R,4S)-4-{L-N-[(2S)-3-[(2RS)-2,3-diacetoxypropyl]sulfinyl-2-(1-naphthylmethyl)propionyl]norleucyl}amino-5-cyclohexyl-1-morpholino-2,3-pentanediol] | 6 |
| CC(=O)OCC(CS(=O)(=O)C[C@@H](Cc1cccc2ccccc12)C(=O)N[C@@H](Cc1c[nH]cn1)C(=O)N[C@@H](CC1CCCCC1)[C@@H](O)[C@@H](O)CN1CCOCC1)OC(C)=O (some centres unmarked) [Example 23] | 4.8 |
| CCCC[C@H](NC(=O)[C@H](Cc1cccc2ccccc12)CS(=O)(=O)CC(COC(C)=O)=NOC)C(=O)N[C@@H](CC1CCCCC1)[C@@H](O)[C@@H](O)CN1CCOCC1 [Example 41, (2S,3R,4S)-4-{L-N-[(2S)-3-(3-acetoxy-2-methoxyiminopropyl)sulfonyl-2-(1-naphthylmethyl)propionyl]norleucyl}amino-5-cyclohexyl-1-morpholino-2,3-pentanediol] | 0.79 |
| CCCC[C@H](NC(=O)[C@H](Cc1cccc2ccccc12)CS(=O)(=O)C1CCC(OC(C)=O)C1OC(C)=O)C(=O)N[C@@H](CC1CCCCC1)[C@@H](O)[C@@H](O)CN1CCOCC1 (stereo partly drawn) [Example 36, (2S,3R,4S),4-{L-N-[(2S)-3-(2,3-diacetoxycyclopentyl)sulfonyl-2-(1-naphthylmethyl)propionyl]norleucyl}amino-5-cyclohexyl-1-morpholino-2,3-pentanediol] | 1.9 |
| CCCC[C@H](NC(=O)[C@H](Cc1cccc2ccccc12)CS(=O)(=O)C1CCC(OC(C)=O)C1)C(=O)N[C@@H](CC1CCCCC1)[C@@H](O)[C@@H](O)CN1CCOCC1 (single isomer, unassigned) [Example 33 (having a high Rf value)] | 2.2 |
| CCCC[C@H](NC(=O)[C@H](Cc1cccc2ccccc12)CS(=O)(=O)C1CCC(OC(C)=O)C1)C(=O)N[C@@H](CC1CCCCC1)[C@@H](O)[C@@H](O)CN1CCOCC1 (single isomer, unassigned) [Example 33 (having a low Rf value)] | 1.1 |
| CCCC[C@H](NC(=O)[C@H](Cc1ccccc1)CS(=O)(=O)CC(COC(=O)CC)OC(=O)CC)C(=O)N[C@@H](CC1CCCCC1)[C@@H](O)[C@@H](O)CN1CCOCC1 (mixture of isomers) [Example 17, (2S,3R,4S)-4-{L-N-[(2S)-3-[(2RS)-2,3-dipropionyloxypropyl]sulfonyl-2-benzylpropionyl]norleucyl}amino-5-cyclohexyl-1-morpholino-2,3-pentanediol] | 8.3 |
| CCCC[C@H](NC(=O)[C@H](Cc1cccc2ccccc12)CS(=O)(=O)CC(COC(C)=O)(OCC)OCC)C(=O)N[C@@H](CC1CCCCC1)[C@@H](O)[C@@H](O)CN1CCOCC1 [Example 48, (2S,3R,4S)-4-{L-N-[(2S)-3-(3-acetoxy-2,2-diethoxypropyl)sulfonyl-2-(1-naphthylmethyl)propionyl]norleucyl}amino-5-cyclohexyl-1-morpholino-2,3-pentanediol] | 3.9 |
| CCCC[C@H](NC(=O)[C@@H](CSCC(COC(C)=O)OC(C)=O)Cc1cccc2ccccc12)C(=O)N[C@@H](CC1CCCCC1)[C@@H](O)[C@@H](O)CN1CCOCC1 (stereo partly drawn) [Example 7, (2S,3R,4S)-4-{L-N-[(2S)-3-[(2RS)-2,3,-diacetoxypropyl]thio-2-(1-naphthylmethyl)propionyl]norleucyl}amino-5-cyclohexyl-1-morpholino-2,3-pentanediol] | 2.8 |
| COC(COC(C)=O)CS(=O)(=O)C[C@@H](Cc1cccc2ccccc12)C(=O)N[C@@H](Cc1cscn1)C(=O)N[C@@H](CC1CCCCC1)[C@@H](O)[C@@H](O)CN1CCOCC1 (stereo partly drawn) [Example 44, (2S,3R,4S)-4-{L,N-[(2S)-3-[(2RS)-3-acetoxy-2-methoxypropyl]sulfonyl-2-(1-naphthylmethyl)propionyl]-(4-thiazolyl)alanyl}amino-5-cyclohexyl-1-morpholino-2,3-pentanediol] | 1.8 |
| CCCC[C@H](NC(=O)[C@H](Cc1cccc2ccccc12)CS(=O)(=O)CC(COC)OC(C)=O)C(=O)N[C@@H](CC1CCCCC1)[C@@H](O)[C@@H](O)CN1CCOCC1 (mixture of isomers) [Example 28, (2S,3R,4S)-4-{L-N-[(2S)-3-[(2RS)-2-acetoxy-3-methoxypropyl]sulfonyl-2-(1-naphthylmethyl)propionyl]norleucyl}amino-5-cyclohexyl-1-morpholino-2,3-pentanediol] | 1.9 |
| CCCC[C@H](NC(=O)[C@H](Cc1cccc2ccccc12)CS(=O)(=O)CCOC(C)=O)C(=O)N[C@@H](CC1CCCCC1)[C@@H](O)[C@@H](O)CN1CCOCC1 [Example 3, (2S,3R,4S)-4{L-N-[(2S)-3-(2-acetoxyethyl)sulfonyl-2-(1-naphthylmethyl)propionyl]norleucyl)amino-5-cyclohexyl-1-morpholino-2,3-pentanediol] | 3.1 |
| CCCC[C@H](NC(=O)[C@@H](CSc1ccc(OC(C)=O)cc1)Cc1cccc2ccccc12)C(=O)N[C@@H](CC1CCCCC1)[C@@H](O)[C@@H](O)CN1CCOCC1 [Example 18, (2S,3R,4S)-4-{L-N-[(2S)-3-(4-acetoxyphenylthio)-2-(1-naphthylmethyl)propionyl]norleucyl}amino-5-cyclohexyl-1-morpholino-2,3-pentanediol] | 9.2 |
